Results: article PMC9822133, “Design, Synthesis and Antiproliferative Evaluation of Bis-Indole Derivatives with a Phenyl Linker: Focus on Autophagy” (Molecules, 2022)

Legend:
Type in all cases: cell-based, human
Atg7 = experiment: Western blot, Atg7; conditions: A549, 24, 48, 72 h
Excerpt: Atg7 belongs to the family of Atg (autophagy-related) proteins involved in the process of autophagy. A ubiquitin-like conjugation system is required for autophagosome formation. The Atg7 protein is an E1-like activating enzyme that ensures the conjugation reaction and is essential for successful conversion of cytosolic LC3-I to its conjugated form, LC3-II.. […] Similar results were reported earlier. Hseu et al. studied the effect of a natural chalcone, flavokawain B, on A549 lung cancer cells. […] Moreover, in curcumin-induced autophagy, up-regulation of beclin-1 has also been observed.
A549 cells were seeded on Petri dishes (55 cm^2) at a density of 1 × 10^6 and allowed to culture in the medium. After 24 h, the test substance was added, and the cells were incubated for 24, 48 and 72 h. Subsequently, the cells were lysed with ice-cold Laemli buffer solution containing glycerol, 1M Tris/HCl (pH 6.8), 20% sodium dodecyl sulphate (SDS), deionized water and mixtures of phosphatase and protease inhibitors. After lysis, the cells were sonicated, and the protein concentration in the samples was quantified using the Pierce® BCA Protein Assay Kit (Thermo Scientific, Rockford, IL, USA) and measured by an automated Cytation™ 3 Cell Imaging Multi-Mode Reader (Biotek) at a wavelength of 570 nm. […]

[1] = system: glutathione reductase (GR); experiment: GR activity in treated A549 cells; conditions: A549, 20 µM
Excerpt: Glutathione is an important intracellular molecule involved in carcinogen detoxification. On the other hand, its elevated state in cancer cells is often associated with resistance to chemotherapy. […] Because high levels of GSH are associated with cancer cell resistance, the GHS-depleting effect of compound 49 could be interesting due to new cancer chemosensitizer development. In the case of GST and GR, we hypothesize that an increase in the activity of both enzymes may be a compensatory mechanism induced by GSH depletion.
Both floating and adherent A549 cells were harvested at 24, 48, and 72 h after treatment with compound 49 (20 µM). SOD determination kit, Glutathione Peroxidase Cellular Activity Assay kit, Glutathione Reductase Assay Kit and Glutathione-S-transferase (GST) Assay Kit (all Sigma Aldrich, Germany) were used for the detection of relevant enzyme activity. Reduced glutathione (GSH) content was measured by the method originally described by Floreani et al.. Assays were performed on an M 501 single beam UV/VIS spectrophotometer (Spectronic Camspec Ltd., Leeds, United Kingdom). All measured parameters were calculated per milligram or gram of protein determined using the bicinchoninic acid assay.

A549 cells = experiment: Cell cycle analysis by flow cytometry
Description: To examine whether the antiproliferative effect of compound 49 is associated with cell cycle arrest, flow cytometry analyses of cell cycle progression were performed.
The A549 lung human alveolar adenocarcinoma cells were seeded at a density of 2 × 10^5/dish. After 24 h incubation, the cells were treated with indole phytoalexin 49 at 20 µM concentration alone or after 1 h pre-treatment with chloroquine (20 µM), and the control group with DMSO (v/v 0.02%). The whole population of treated cells (adherent and floating) for cell cycle analyses was harvested at three different times (24, 48 and 72 h), washed in cold washing buffer (PBS), fixed in cold 70% ethanol and stored at −20 °C at least overnight. For flow cytometry analyses, cell suspensions were washed with PBS, resuspended in staining solution (Triton X-100 final concentration 0.1%, ribonuclease A final concentration 0.5 mg/mL, and propidium iodide final concentration 0.025 mg/mL) and incubated for 30 min in the dark at RT. Stained cells were analyzed using a BD FACSCalibur^TM Flow Cytometer (Becton Dickinson, San Jose, CA, USA) in FL-2 channel. Three independent analyses were performed.

CC(C)(C)OC(=O)n1cc(CNC(=O)Nc2ccc(NC(=O)NCc3cn(C(=O)OC(C)(C)C)c4ccccc34)cc2)c2ccccc21 [Compound 49, N,N′-(1,4-phenylene)bis{N′-[1-(tert-butoxycarbonyl)indol-3-yl]methyl (urea)}]
levels of Atg7 (Atg7): significantly increased | GR ([1]; 24 h): 8.200 ± 2.97 μkat/mg Prot | GR ([1]; 48 h): 11.270 ± 1.04 μkat/mg Prot | GR ([1]; 72 h): 10.100 ± 2.89 μkat/mg Prot | changes in the G1, S or G2/M phases of the cell cycle (A549 cells; A549, 20 µM, 24, 48 and 72 h, vs DMSO): non-significant changes | sub-G0/G1 subpopulation (marker of apoptosis) (A549 cells; A549, 20 µM, all time points, vs DMSO control): minimal changes | cell cycle, combination with CQ (A549 cells; A549, 49 20 µM + CQ 20 µM, 24 h, vs DMSO, CQ or 49 alone): significant cell cycle arrest at the G1 phase | subG0/G1 subpopulation, combination with CQ (A549 cells; A549, 49 20 µM + CQ 20 µM, all time points): non-significant changes
